ChEMBL document CHEMBL6134786, “Design and synthesis of novel 8-(azaindolyl)-benzoazepinones as potent and selective ROCK inhibitors” (RSC Med Chem, 2024)
Converted amounts (≈) assume the structure as drawn.

Columns and labels:
cells = conditions: Homo sapiens, Pulmonary Artery Smooth Muscle Cells, read-out: pEC50 (converted)
[1] = Metabolic stability in rat microsomes assessed as half life; type: ADME, Microsome
[2] = Apparent permeability across apical to basolateral side in human Caco-2 cells; type: ADME, cell-based
[3] = Kinetic solubility of the compound in PBS at pH 7.2; type: physicochemical; conditions: read-out: Kinetic_solubility

Row | EC50 (cells) [nM] | half-life [1] [min] | Papp A→B [2] [×10⁻⁶ cm/s] | solubility kinetic [3] [µM] | Compound
1 | 316 | – | – | – | Nc1cc(-c2ccc3c(c2)CC(=O)N(c2ccccc2)CC3)ccn1
2 | 5.01 | 8.4 | 5.6 | – | CN1CCN(CCCOc2cccc(N3CCc4ccc(-c5ccnc6[nH]ccc56)cc4CC3=O)c2)CC1
3 | 398 | – | – | – | O=C1Cc2cc(-c3cn[nH]c3)ccc2CCN1c1ccccc1
4 | 50.1 | – | – | – | O=C1Cc2cc(-c3ncnc4[nH]ccc34)ccc2CCN1c1ccccc1
5 | 12.6 | 18 | 26.9 | < 5 | O=C1Cc2cc(-c3ccnc4[nH]ccc34)ccc2CCN1c1ccccc1
6 | 31.6 | – | – | – | COc1cccc(N2CCc3ccc(-c4ccnc5[nH]ccc45)cc3CC2=O)c1
7 | – | – | – | 131 (≈ 46.3 µg/mL) | O=C1CCc2ccc(-c3ccnc4[nH]ccc34)cc2CN1c1ccccc1
